Target: T1, NLRP3 (Homo sapiens, UniProt Q96P20)
T1 construct: Seed THP-1 cells (25,000 cells/well) containing 1.0 μg/ml LPS in 40 μl of RPMI medium; host or cells: THP-1 cells
Assay: THP-1 Cells Pyroptosis Assay
Format: cell-based
Conditions: THP-1 cells with 1.0 μg/ml LPS; compound 3 hours; nigericin 5 μM 1 hr; resazurin readout
How it was run: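 THP-1 cells in serum-free RPMI primed with LPS (1 μg/ml FAC), incubated with compound 3 h at 37 °C, then nigericin (5 μM FAC) for 1 h. Supernatant removed after spin; viability read by resazurin (100 μM FAC) reduction after a further 1-2 h at 37 °C.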

T1 sequence (Q96P20 whole entry): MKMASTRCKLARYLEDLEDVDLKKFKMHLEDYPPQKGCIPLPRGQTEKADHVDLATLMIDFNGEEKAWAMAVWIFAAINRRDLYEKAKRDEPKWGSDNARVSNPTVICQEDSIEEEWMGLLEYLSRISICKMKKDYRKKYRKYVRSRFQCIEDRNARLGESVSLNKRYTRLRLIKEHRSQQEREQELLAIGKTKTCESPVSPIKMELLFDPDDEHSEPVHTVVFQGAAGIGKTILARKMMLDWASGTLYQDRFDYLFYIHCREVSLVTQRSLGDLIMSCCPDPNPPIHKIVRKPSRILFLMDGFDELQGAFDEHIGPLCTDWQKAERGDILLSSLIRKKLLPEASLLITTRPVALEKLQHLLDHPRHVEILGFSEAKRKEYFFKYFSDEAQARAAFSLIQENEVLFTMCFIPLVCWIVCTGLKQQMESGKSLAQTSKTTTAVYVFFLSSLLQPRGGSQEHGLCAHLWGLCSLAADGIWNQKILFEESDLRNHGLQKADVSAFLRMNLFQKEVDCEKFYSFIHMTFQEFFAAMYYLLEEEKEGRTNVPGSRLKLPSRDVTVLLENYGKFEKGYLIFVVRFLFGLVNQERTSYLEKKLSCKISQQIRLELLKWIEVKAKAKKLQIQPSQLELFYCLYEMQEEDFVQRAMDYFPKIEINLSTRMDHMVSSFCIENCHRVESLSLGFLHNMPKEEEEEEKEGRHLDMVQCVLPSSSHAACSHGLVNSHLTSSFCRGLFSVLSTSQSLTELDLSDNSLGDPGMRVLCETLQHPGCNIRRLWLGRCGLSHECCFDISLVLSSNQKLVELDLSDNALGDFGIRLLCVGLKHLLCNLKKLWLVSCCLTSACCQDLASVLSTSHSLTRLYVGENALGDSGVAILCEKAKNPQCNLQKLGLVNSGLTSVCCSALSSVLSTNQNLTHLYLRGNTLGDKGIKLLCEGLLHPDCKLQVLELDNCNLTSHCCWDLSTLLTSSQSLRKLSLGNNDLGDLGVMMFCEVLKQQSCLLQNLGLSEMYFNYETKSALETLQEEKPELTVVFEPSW

SMILES | IC50
CCN1CCC[C@@H](Nc2nc3nc(-c4c(C)cc(C(F)(F)F)cc4O)cc(C#N)c3o2)C1 [Example 117, 2-[[(3R)-1-Ethyl-3-piperidyl]amino]-5-[2-hydroxy-6-methyl-4 (trifluoromethyl)phenyl]-oxazolo[4,5-b]pyridine-7-carbonitrile] | 5.2 nM
CCN1CCC[C@@H](Nc2nc3nc(-c4c(O)cccc4C#N)ccc3o2)C1 [Example 119, 2-[2-[[(3R)-1-Ethyl-3-piperidyl]amino]oxazolo[4,5-b]pyridin-5-yl]-3-hydroxy-benzonitrile] | 23 nM
Cc1cc(C(F)(F)F)cc(O)c1-c1ccc2oc(NC34CCC(CC3)N(C)C4)nc2n1 [Example 120, 3-Methyl-2-[2-[(2-methyl-2-azabicyclo[2.2.2]octan-4-yl)amino]oxazolo[4,5-b]pyridin-5-yl]-5-(trifluoromethyl)phenol] | 108 nM
Cc1cc(C(F)F)cc(O)c1-c1ccc2oc(N[C@@H]3CCCN(C)C3)nc2n1 [Example 121, 5-(Difluoromethyl)-3-methyl-2-[2-[[(3R)-1-methyl-3-piperidyl]amino]oxazolo[4,5-b]pyridin-5-yl]phenol] | 2.7 nM
CCN1CCC[C@@H](Nc2nc3nc(-c4c(C)cc(C(F)F)cc4O)ccc3o2)C1 [Example 122, 5-(Difluoromethyl)-2-[2-[[(3R)-1-ethyl-3-piperidyl]amino]oxazolo[4,5-b]pyridin-5-yl]-3-methyl-phenol;2,2,2-trifluoroacetic acid] | 1 nM
CCN1CCC[C@@H](Nc2nc3nc(-c4c(C)cc(C)cc4O)ccc3o2)C1 [Example 123, 2-[2-[[(3R)-1-Ethyl-3-piperidyl]amino]oxazolo[4,5-b]pyridin-5-yl]-3,5-dimethyl-phenol] | 0.7 nM
CCN1CCC(O)C(Nc2nc3nc(-c4c(C)cc(Cl)cc4O)ccc3o2)C1 (stereo not drawn) [Example 124, 3-[[5-(4-Chloro-2-hydroxy-6-methyl-phenyl)oxazolo[4,5-b]pyridin-2-yl]amino]-1-ethyl-piperidin-4-ol] | 53.8 nM
CCN1CCC[C@@H](Nc2nc3nc(-c4c(C)cccc4O)ccc3o2)C1 [Example 125, 2-[2-[[(3R)-1-Ethyl-3-piperidyl]amino]oxazolo[4,5-b]pyridin-5-yl]-3-methyl-phenol] | 3 nM
CN1CCC[C@@H](Nc2nc3nc(-c4c(O)cc(F)cc4C(F)(F)F)ccc3o2)C1 [Example 126, 5-Fluoro-2-[2-[[(3R)-1-methyl-3-piperidyl]amino]oxazolo[4,5-b]pyridin-5-yl]-3-(trifluoromethyl)phenol;2,2,2-trifluoroacetic acid] | 3.9 nM
CCN1CCC[C@@H](Nc2nc3nc(-c4ccc(Cl)cc4O)c(Cl)cc3o2)C1 [Example 127, 5-Chloro-2-[6-Chloro-2-[[(3R)-1-ethyl-3-piperidyl]amino]oxazolo[4,5-b]pyridin-5-yl]phenol] | 20.6 nM
Cc1cc(C)c(-c2ccc3oc(N[C@@H]4CCCN(C)C4)nc3n2)c(O)c1 [Example 128, 3,5-Dimethyl-2-[2-[[(3R)-1-methyl-3-piperidyl]amino]oxazolo[4,5-b]pyridin-5-yl]phenol;2,2,2-trifluoroacetic acid] | 1.8 nM
CCN1CCC[C@@H](Nc2nc3nc(-c4c(O)cc(F)cc4Cl)ccc3o2)C1 [Example 129, 3-Chloro-2-[2-[[(3R)-1-ethyl-3-piperidyl]amino]oxazolo[4,5-b]pyridin-5-yl]-5-fluoro-phenol;2,2,2-trifluoroacetic acid] | 1.7 nM
CCN1CCC[C@@H](Nc2nc3nc(-c4c(C)cc(OC(F)F)cc4O)ccc3o2)C1 [Example 130, 5-(Difluoromethoxy)-2-[2-[[(3R)-1-ethyl-3-piperidyl]amino]oxazolo[4,5-b]pyridin-5-yl]-3-methyl-phenol;2,2,2-trifluoroacetic acid] | 1.9 nM
CCN1CCC(Nc2nc3nc(-c4c(C)cc(C(F)(F)F)cc4O)ccc3o2)C1 (stereo not drawn) [Example 131, 2-[2-[(1-Ethylpyrrolidin-3-yl)amino]oxazolo[4,5-b]pyridin-5-yl]-3-methyl-5-(trifluoromethyl)phenol] | 9.6 nM
CCN1CCC[C@@H](Nc2nc3nc(-c4c(O)cc(Cl)cc4Cl)ccc3o2)C1 [Example 132, 3,5-Dichloro-2-[2-[[(3R)-1-ethyl-3-piperidyl]amino]oxazolo[4,5-b]pyridin-5-yl]phenol;2,2,2-trifluoroacetic acid] | 0.7 nM
CCN1CCC[C@@H](Nc2nc3nc(-c4ccc(C(F)(F)F)cc4O)c(F)cc3[nH]2)C1 [Example 133, 2-[2-[[(3R)-1-Ethyl-3-piperidyl]amino]-6-fluoro-1H-imidazo[4,5-b]pyridin-5-yl]-5-(trifluoromethyl)phenol] | 80.3 nM
CCN1C[C@@H](O)C[C@@H](Nc2nc3nc(-c4c(C)cc(Cl)cc4O)ccc3o2)C1 [Example 134, (3S,5R)-5-[[5-(4-Chloro-2-hydroxy-6-methyl-phenyl)oxazolo[4,5-b]pyridin-2-yl]amino]-1-ethyl-piperidin-3-ol] | 1.9 nM
CNC1(c2nc3nc(-c4c(C)cc(C(F)(F)F)cc4O)ccc3o2)CCOCC1 [Example 135, 3-Methyl-2-[2-[4-(methylamino)tetrahydropyran-4-yl]oxazolo[4,5-b]pyridin-5-yl]-5-(trifluoromethyl)phenol;2,2,2-trifluoroacetic acid] | 505 nM
CCN1CCC[C@@H](Nc2nc3ccc(-c4c(C)cc(Cl)cc4O)nc3[nH]2)C1 [Example 136, 5-Chloro-2-[2-[[(3R)-1-ethyl-3-piperidyl]amino]-3H-imidazo[4,5-b]pyridin-5-yl]-3-methyl-phenol] | 1 nM
CCN1CCC[C@@H](Nc2nc3nc(-c4c(C)cc(OC(F)(F)F)cc4O)ccc3o2)C1 [Example 137, 2-[2-[[(3R)-1-Ethyl-3-piperidyl]amino]oxazolo[4,5-b]pyridin-5-yl]-3-methyl-5-(trifluoromethoxy)phenol;2,2,2-trifluoroacetic acid] | 4.8 nM
CCN1CCCC(c2nc3nc(-c4c(C)cc(C(F)(F)F)cc4O)ccc3o2)C1 (stereo not drawn) [Example 138, 2-[2-(1-Ethyl-3-piperidyl)oxazolo[4,5-b]pyridin-5-yl]-3-methyl-5-(trifluoromethyl)phenol] | 234 nM

Reference: patent US20240279237A1, “FUSED BICYCLIC HETEROARYL COMPOUNDS USEFUL AS NLRP3 INHIBITORS” (Hoffmann-La Roche Inc., priority 2021, published 2024)
